# Laboratory results taken from patent US20030215391A1, “Fluorescent agents for real-time measurement of organ function” (priority 2003, published 2003).
# What was measured:
# [1] = (Aime, 1995); cited from earlier work
# [2] = chelate with europium; previous studies (Hemmila, 1984); cited from earlier work
# [3] = (Bousquet, 1988); cited from earlier work
# [4] = Fluorometric analysis (excitation and emission spectra); type: physicochemical; settings: FIG. 4
# Method: For the synthesis of a nile blue-DTPA conjugate, 0.1 g of DTPA dianhydride (ccDPTA) was dissolved in 6 ml of dimethyl sulfoxide (DMSO) in a round bottom flask. Ninety mg of nile blue were dissolved in DMSO and 36 μL of triethyl amine were added, turning the solution purple. The nile blue solution was added drop wise to the solution of ccDTPA while stirring. The solution turned blue. Thirty-eight μL of […] (TEA) were added to the final mixture, turning the solution purple. After mixing, the mixture was heated to 60° C. and stirred for 2 hours. The reaction mixture was then loaded onto a silica gel column and eluted with acetone:ethylacetate. The fractions corresponding to the nile blue-DTPA conjugate were pooled and evaporated, yielding a magenta colored oil. The oil was rechromatographed on a second silica gel column using acetone as eluant. The nile blue-DTPA conjugated fractions were pooled and rotate-evaporated to give a magenta colored oil. […]
# The only group of chelating agents known to produce highly soluble and stable lanthanide chelates are the polyamino polyacetic acid analogs. […] The simplest initial approach was to study the fluorescence characteristics of the chelate between Eu and other already commercially available polyaminopoly bis (2-aminoethyl ether) acetic acids. […]
# [5] = Solubility in aqueous media at physiological pH; type: physicochemical
# From the text: where R may be furoic acid, nicotinic acid, picolinic acid, or some other substituted aromatic acid. The subsituted tetrazacyclododecane (STACD) is produced by reacting the amine groups with a brominated acid. 6-Bromo-picolinic acid, 5-bromo-nicotinic acid, and 5-bromo-furoic acid are all appropriate for prepararing a STACD. However, not all of these molecules are soluble in aqueous media at physiological pH. For example, while the tetrafuroic acid derivative is soluble in physiological fluids, the tetranicotinic acid derivative is not. The derivative should be combined with a solubility enhancer, for example, […], to form a salt which is soluble at pH 7. Other solubility enhancers may also be employed to modify the solubility of the STACD complex.
# Magnetic Resonance Imaging Contrast Agent: The molecules of the invention, especially TABFTA, STACD, and their derivatives, can also be used as contrast agents for magnetic resonance imaging (MRI). When chelated with lanthanide ions such as gadolinium (Gd^3+) or […], the resulting paramagnetic compound enhances the relaxation of hydrogen protons, increasing signal intensities in MRI imaging (Bousquet, 1988). The increased signal increases the signal-to-noise ratio, reducing imaging time. In addition, the contrast agent may increase specificity in diagnosis. […]
compound,measurement,setting,value
"O=C(O)CN(CCN(CC(=O)O)CC(=O)O)CCN(CC(=O)O)CC(=O)O [DTPA, diethylenetriaminepentaacetic acid]",affinity constant (k),[1],23
O=C(O)CN(CCN(CC(=O)O)CC(=O)O)CC(=O)O [EDTA],fluorescence of the chelate,[2],essentially non-fluorescent
O=C([O-])CN1CCN(CC(=O)[O-])CCN(CC(=O)O)CCN(CC(=O)[O-])CC1.[Gd+3] [chelates of DOTA and gadolinium],distribution after intravenous injection,[3],extracellular space distribution
same,excretion after intravenous injection,[3],excreted only by glomerular filtration
CC[N+](CC)=c1ccc2nc3c(cc(N)c4ccccc43)oc-2c1 [nile blue],emission fluorescence wavelength,[4],695 nm
tetraazabycyclofurantetraacetate [TABFTA],water solubility,[5],water-soluble
